In ChEMBL document CHEMBL3045996, “Use of classical and 3-D QSAR to examine the hydration state of juvenile hormone esterase inhibitors” (Bioorg Med Chem, 2003):

Assay: Inhibition of juvenile hormone esterase

SMILES | pIC50
CCCCCCCC[S+]([O-])CC(=O)C(F)(F)F (configuration not stated) | 7.37
CCCCC#CC(=O)C(F)(F)F | 5.49
CCCCCCCCCCC(=O)C(F)(F)F | 6.66
O=C(CSc1c(F)c(F)cc(F)c1F)C(F)(F)F | 5.92
CCCCCC/C=C\C(=O)C(F)(F)F | 4.1
O=C(CSC1CCCCC1)C(F)(F)F | 5.28
CCCCCCCCSC(CC)C(=O)C(F)(F)F (configuration not stated) | 5.32
Cc1cc(SCC(=O)C(F)(F)F)ccc1Br | 7.89
COc1ccc(SCC(=O)C(F)(F)F)cc1 | 5.89
CC(C)(C)c1ccc([S+]([O-])CC(=O)C(F)(F)F)cc1 (configuration not stated) | 7.64
O=C(CSc1c(Cl)cccc1Cl)C(F)(F)F | 7.11
Cc1ccccc1SCC(=O)C(F)(F)F | 5.37
CCCCCCCCCCCCCSCC(=O)C(F)(F)F | 7.35
CCCCCCCCCCC#CC(=O)C(F)(F)F | 7.57
COC(C)(C)CCCC(C)CCSCC(=O)C(F)(F)F (configuration not stated) | 8.12
O=C(CSc1cc(Cl)ccc1Cl)C(F)(F)F | 7.64
O=C(c1ccccc1)C(F)(F)F | 3.04
O=C(CSC1CCCC1)C(F)(F)F | 5.01
CCCCC(C)(C)CC(C)CSCC(=O)C(F)(F)F (configuration not stated) | 7.98

SMILES | pIC50
CCCCCCCCCCCCCCC(=O)C(F)(F)F | 5.14
CCCCCCC#CC(=O)C(F)(F)F | 6.4
Cc1cc(C(C)(C)C)ccc1SCC(=O)C(F)(F)F | 8.52
O=C(CSc1ccccc1Oc1ccccc1)C(F)(F)F | 6.66
O=C(CSc1cccc(Cl)c1)C(F)(F)F | 6.4
O=C(CSc1c(F)c(F)c(F)c(F)c1F)C(F)(F)F | 4.96
CCCCCCCCCCCCCCCCSCC(=O)C(F)(F)F | 6.2
Cc1cccc(C)c1SCC(=O)C(F)(F)F | 6.92
CCCCCCCCCCCCCCCCCC(=O)C(F)(F)F | 4.85
CCCCCCCC(C)SCC(=O)C(F)(F)F (configuration not stated) | 9.77
O=C(C#Cc1ccccc1)C(F)(F)F | 5.27
CC(C)CCSCC(=O)C(F)(F)F | 5.6
CCCCCCCCC#CC(=O)C(F)(F)F | 7.24
CC(C/C=C\c1ccc(C(=O)C(F)(F)F)cc1)CCC1OC1(C)C (configuration not stated) | 6.52
Cc1ccc(SCC(=O)C(F)(F)F)cc1C | 7.96
CCCCCCCCCCCCCCCCCCSCC(=O)C(F)(F)F | 6.3
CCCCCCCC(CCC)SCC(=O)C(F)(F)F (configuration not stated) | 7.89
Cc1ccc(SCC(=O)C(F)(F)F)cc1 | 6.96
CC(C)=CCC/C(C)=C\CCSCC(=O)C(F)(F)F | 8.51

SMILES | pIC50
COc1ccccc1SCC(=O)C(F)(F)F | 5.7
Cc1cccc(CSCC(=O)C(F)(F)F)c1 | 5.1
CCCCCCCCS(=O)(=O)CC(=O)C(F)(F)F | 6.9
CCCCCCCC(=O)C(F)(F)F | 4.17
CCCCCCCCCCCCC#CC(=O)C(F)(F)F | 8
CCCCCCCCCCSCC(=O)C(F)(F)F | 7.7
CCCCSCC(=O)C(F)(F)F | 5.82
O=C(CS(=O)(=O)c1ccccc1)C(F)(F)F | 3.98
CC(C)c1ccccc1SCC(=O)C(F)(F)F | 6.47
CCCCCCCCCCCCC(=O)C(F)(F)F | 7
O=C(CSc1ccc(Cl)cc1)C(F)(F)F | 5.89
CCCCCCCCSC(C)C(=O)C(F)(F)F (configuration not stated) | 9.06
CC(C)(C)SCC(=O)C(F)(F)F | 5.3
CCCCCCCSCC(=O)C(F)(F)F | 8.09
O=C(CSc1ccc(Br)cc1)C(F)(F)F | 6.39
Cc1ccccc1CSCC(=O)C(F)(F)F | 4.9
O=C(CSc1ccc(O)cc1)C(F)(F)F | 5.21
Cc1ccc(CSCC(=O)C(F)(F)F)cc1 | 5.2
O=C(CSCc1ccccc1Cl)C(F)(F)F | 5.18

More lines, now with the values ahead:

pIC50 | SMILES
5.54 | CCc1ccccc1SCC(=O)C(F)(F)F
5.41 | CCCCCCCCCCCCCC(=O)C(F)(F)F
4.82 | O=C(CSCc1ccccc1)C(F)(F)F
8.43 | CCCCCCCCCSCC(=O)C(F)(F)F
8.62 | CCCCCCCCSCC(=O)C(F)(F)F
6.17 | O=C(CSc1ccccc1Br)C(F)(F)F
5.8 | CCC(C)CSCC(=O)C(F)(F)F (configuration not stated)
7.36 | CCCCCCCCCCS(=O)(=O)CC(=O)C(F)(F)F
4.21 | O=C(C[S+]([O-])c1ccccc1)C(F)(F)F (configuration not stated)
6.06 | O=C(CSc1cccc(Br)c1)C(F)(F)F
6.11 | CCCCCSCC(=O)C(F)(F)F
6.77 | O=C(CSCCCc1ccccc1)C(F)(F)F
4.15 | COc1ccc(C(=O)C(F)(F)F)cc1
3.3 | CC(CCC1OC1(C)C)CC1OC1c1ccc(C(=O)C(F)(F)F)cc1 (configuration not stated)
5.34 | O=C(CSCc1ccc(Cl)cc1)C(F)(F)F
5.08 | O=C(CSc1ccc(F)cc1)C(F)(F)F
5.15 | O=C(CSc1ccccc1CO)C(F)(F)F
3.66 | CCCCCCC(=O)C(F)(F)F
6.7 | CC(C)=CCCC(C)C/C=C\c1ccc(C(=O)C(F)(F)F)cc1 (configuration not stated)
5.68 | O=C(CSc1ccccc1Cl)C(F)(F)F
6.04 | Cc1ccc(SCC(=O)C(F)(F)F)c(C)c1
7.21 | CCCCCCCCCCCCS(=O)(=O)CC(=O)C(F)(F)F
8.12 | CC(C)(C)c1ccc(SCC(=O)C(F)(F)F)cc1
6.89 | Cc1cccc(SCC(=O)C(F)(F)F)c1
7.37 | CCCCCCCCCCCSCC(=O)C(F)(F)F

pIC50 | SMILES
7.8 | O=C(CSc1c(Cl)c(Cl)c(Cl)c(Cl)c1Cl)C(F)(F)F
5.89 | COc1cccc(SCC(=O)C(F)(F)F)c1
7.05 | CN(C)c1ccc(SCC(=O)C(F)(F)F)cc1
7.16 | CCCCCCCC(CCCC)SCC(=O)C(F)(F)F (configuration not stated)
5.8 | CCCCCCCCCCCCc1ccc(CSCC(=O)C(F)(F)F)cc1
5.17 | CCCCCCCCC(=O)C(F)(F)F
5.74 | Cc1cc(C)cc(SCC(=O)C(F)(F)F)c1
5.14 | CCCCCC/C=C/C(=O)C(F)(F)F
8.35 | CC(C)=CCCC(C)CCSCC(=O)C(F)(F)F (configuration not stated)
7.52 | O=C(CSc1ccccc1Nc1ccccc1)C(F)(F)F
6.4 | CCCCCCCCCCCCCCSCC(=O)C(F)(F)F
6.77 | Cc1ccc(C)c(SCC(=O)C(F)(F)F)c1
5.49 | O=C(CSCCc1ccccc1)C(F)(F)F
6.31 | O=C(CS(=O)(=O)CCc1ccccc1)C(F)(F)F
7.49 | O=C(CSc1cc(Cl)c(Cl)cc1Cl)C(F)(F)F
8.24 | CCCCCCCC(CC)SCC(=O)C(F)(F)F (configuration not stated)
7.7 | O=C(CSc1ccc(Cl)c(Cl)c1)C(F)(F)F
4.09 | CCCCCCCCSC(C(=O)C(F)(F)F)c1ccccc1 (configuration not stated)
7.82 | CCCCCCCCCCCCSCC(=O)C(F)(F)F
4.09 | CCCCCCCCSC(CCC)C(=O)C(F)(F)F (configuration not stated)
6.06 | CCCCCCCC/C=C/C(=O)C(F)(F)F
5.6 | O=C(CSc1cccc(C(F)(F)F)c1)C(F)(F)F
8.49 | COC(C)(C)CCC/C(C)=C\CCSCC(=O)C(F)(F)F
5.06 | O=C(CSc1ccccc1)C(F)(F)F
8.07 | CCCCCCCC(C)SC(C)C(=O)C(F)(F)F (configuration not stated)
